Source: patent US20260042755A1, “GPR6 INVERSE AGONISTS” (MapLight Therapeutics, Inc., priority 2022, published 2026)

Key:
GPR3 = biological target: T1, GPR3 (Homo sapiens, UniProt P46089); assay: GPR3 antagonist functional cAMP assay (LANCE Ultra cAMP TR-FRET, CHO cells stably expressing GPR3); assay type: cell-based; conditions: procedure of Example 24
T1 construct: expressed in transfected cells; host or cells: CHO cells
In short: (§1)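 Cells in Krebs-Ringer buffer with 0.1% BSA and 150 μM Ro 20-1724 PDE inhibitor were exposed to compounds for 45 min at 37 °C (0.1% DMSO). cAMP was read by TR-FRET at 665 nm; IC50s came from 4-parameter fits normalized to DMSO and reference compound.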

GPR6 = biological target: T2, GPR6 (Homo sapiens, UniProt P46095); assay: GPR6 antagonist functional cAMP assay (LANCE Ultra cAMP TR-FRET, CHO cells stably expressing GPR6); assay type: cell-based; conditions: procedure of Example 24
T2 construct: expressed in transfected cells; host or cells: CHO cells
T2 sequence (P46095 whole entry): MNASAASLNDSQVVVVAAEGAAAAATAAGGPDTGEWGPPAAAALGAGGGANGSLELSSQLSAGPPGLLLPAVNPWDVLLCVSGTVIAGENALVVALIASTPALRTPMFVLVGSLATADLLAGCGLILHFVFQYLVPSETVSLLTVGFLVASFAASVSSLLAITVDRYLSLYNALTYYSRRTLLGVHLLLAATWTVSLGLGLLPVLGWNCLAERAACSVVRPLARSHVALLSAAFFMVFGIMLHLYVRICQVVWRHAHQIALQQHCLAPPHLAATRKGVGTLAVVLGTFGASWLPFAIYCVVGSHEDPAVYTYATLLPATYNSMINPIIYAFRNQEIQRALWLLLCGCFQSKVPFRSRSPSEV
In short: as §1

T1 sequence (P46089 whole entry, species assumed): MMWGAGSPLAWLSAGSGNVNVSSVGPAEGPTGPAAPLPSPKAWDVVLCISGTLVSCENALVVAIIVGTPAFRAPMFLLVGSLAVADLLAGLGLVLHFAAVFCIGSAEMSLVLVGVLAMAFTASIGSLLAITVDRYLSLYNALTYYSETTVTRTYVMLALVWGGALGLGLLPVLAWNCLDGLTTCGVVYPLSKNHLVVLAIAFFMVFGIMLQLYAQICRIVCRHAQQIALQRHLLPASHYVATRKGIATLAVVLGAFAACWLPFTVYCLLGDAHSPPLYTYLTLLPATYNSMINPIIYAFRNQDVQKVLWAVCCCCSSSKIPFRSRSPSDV

Row | IC50 (GPR3) [nM] | IC50 (GPR6) [nM] | Compound
1 | 100 to 1000 | 100 to 1000 | OCCOc1cc2nc(-c3cnn(CF)c3)c(N3CCN(Cc4ccc(F)cc4F)CC3)nc2cn1 [Compound 760, 2-(3-{4-[(2,4-difluorophenyl)methyl]-1-piperazinyl}-2-[1-(fluoromethyl)-4-pyrazolyl]-1,4,6-triaza-7-naphthyloxy)ethanol]
2 | 1000 to 30000 | 100 to 1000 | FCn1cc(-c2nc3cc(Cl)ncc3nc2N2CCN(Cc3ccc(F)cc3F)CC2)cn1 [Compound 761, 7-chloro-3-{4-[(2,4-difluorophenyl)methyl]-1-piperazinyl}-2-[1-(fluoromethyl)-4-pyrazolyl]-1,4,6-triazanaphthalene]
3 | 1000 to 30000 | 1000 to 30000 | COCCNc1cc2nc(-c3cnn(CF)c3)c(N3CCN(Cc4ccc(F)cc4F)CC3)nc2cn1 [Compound 762, (2-methoxyethyl)(3-{4-[(2,4-difluorophenyl)methyl]-1-piperazinyl}-2-[1-(fluoromethyl)-4-pyrazolyl]-1,4,6-triaza-7-naphthyl)amine]
4 | 1000 to 30000 | 1000 to 30000 | O=C(O)c1cc2nc(-c3cnn(CF)c3)c(N3CCN(Cc4ccc(F)cc4F)CC3)nc2cn1 [Compound 765, 3-{4-[(2,4-difluorophenyl)methyl]-1-piperazinyl}-2-[1-(fluoromethyl)-4-pyrazolyl]-1,4,6-triaza-7-naphthoic acid]
5 | 1000 to 30000 | 1000 to 30000 | Cn1cc(-c2nc3cnc(C4CC4CO)cc3nc2N2CCC(Oc3ccc(F)cc3F)CC2)cn1 (centres unmarked) [Compound 768, (2-{2-[4-(2,4-difluorophenoxy)-1-piperidyl]-3-(1-methyl-4-pyrazolyl)-1,4,6-triaza-7-naphthyl}cyclopropyl)methanol]
6 | 1000 to 30000 | 1000 to 30000 | Fc1ccc(F)c(CN2CCN(c3nc4cnc(-c5cnn(C(F)F)c5)cc4nc3-c3cnn(C(F)F)c3)CC2)c1 [Compound 774, 2,7-bis [1-(difluoromethyl)-4-pyrazolyl]-3-{4-[(2,5-difluorophenyl)methyl]-1-piperazinyl}-1,4,6-triazanaphthalene]
7 | 100 to 1000 | < 100 | CC(C)(O)C(O)c1cc2nc(-c3cn[nH]c3)c(N3CCC(=Cc4ccc(F)cc4F)CC3)nc2cn1 (centres unmarked) [Compound 780, 1-(3-{4-[(2,4-difluorophenyl)methylene]-1-piperidyl}-2-(4-pyrazolyl)-1,4,6-triaza-7-naphthyl)-2-methyl-1,2-propanediol]
8 | ≥ 30000 | ≥ 30000 | Cn1cc(-c2nc3cnccc3nc2N2CCc3c(cnn3-c3ccc(F)cc3F)C2)cn1 [Compound 788, 1-(2,4-difluorophenyl)-5-[3-(1-methyl-4-pyrazolyl)-1,4,6-triaza-2-naphthyl]-4,5,6,7-tetrahydro-1H-1,2,5-triazaindene]
9 | 1000 to 30000 | 1000 to 30000 | CC(=O)N1CCc2nc(N3CCc4c(cnn4-c4ccc(F)cc4F)C3)c(-c3cnn(C)c3)nc2C1 [Compound 789, 1-{2-[1-(2,4-difluorophenyl)-4,5,6,7-tetrahydro-1H-1,2,5-triazainden-5-yl]-3-(1-methyl-4-pyrazolyl)-5,6,7,8-tetrahydro-1,4,6-triaza-6-naphthyl}-1-ethanone]
10 | 1000 to 30000 | 100 to 1000 | CC(=O)N1CCc2nc(N3CCC(C(C)c4ccc(F)cc4F)CC3)c(-c3cnn(C)c3)nc2C1 (centres unmarked) [Compound 790, 1-(2-{4-[1-(2,4-difluorophenyl)ethyl]-1-piperidyl}-3-(1-methyl-4-pyrazolyl)-5,6,7,8-tetrahydro-1,4,6-triaza-6-naphthyl)-1-ethanone]
11 | 100 to 1000 | 100 to 1000 | CC(C)(O)C(O)c1cc2nc(N3CCN(Cc4ccc(F)cc4F)CC3)c(-c3ccc(F)c(N)n3)nc2cn1 (centres unmarked) [Compound 791, 1-[3-(6-amino-5-fluoro-2-pyridyl)-2-{4-[(2,4-difluorophenyl)methyl]-1-piperazinyl}-1,4,6-triaza-7-naphthyl]-2-methyl-1,2-propanediol]
12 | 1000 to 30000 | 1000 to 30000 | N#Cc1cc2nc(-c3cnn(CF)c3)c(N3CCN(Cc4ccc(F)cc4F)CC3)nc2cn1 [Compound 793, 3-{4-[(2,4-difluorophenyl)methyl]-1-piperazinyl}-2-[1-(fluoromethyl)-4-pyrazolyl]-1,4,6-triaza-7-naphthonitrile]
13 | 1000 to 30000 | 100 to 1000 | Nc1cc2nc(-c3cnn(CF)c3)c(N3CCN(Cc4ccc(F)cc4F)CC3)nc2cn1 [Compound 794, 3-{4-[(2,4-difluorophenyl)methyl]-1-piperazinyl}-2-[1-(fluoromethyl)-4-pyrazolyl]-1,4,6-triaza-7-naphthylamine]
14 | 1000 to 30000 | 100 to 1000 | O=c1cc2nc(-c3cnn(CF)c3)c(N3CCN(Cc4ccc(F)cc4F)CC3)nc2c[nH]1 [Compound 796, 3-{4-[(2,4-difluorophenyl)methyl]-1-piperazinyl}-2-[1-(fluoromethyl)-4-pyrazolyl]-1,4,6-triaza-7(6H)-naphthalenone]
15 | 1000 to 30000 | 100 to 1000 | CC(C)(O)COc1cc2nc(-c3cnn(CF)c3)c(N3CCN(Cc4ccc(F)cc4F)CC3)nc2cn1 [Compound 798, 1-(3-{4-[(2,4-difluorophenyl)methyl]-1-piperazinyl}-2-[1-(fluoromethyl)-4-pyrazolyl]-1,4,6-triaza-7-naphthyloxy)-2-methyl-2-propanol]

The next lines start with the compound.

Row | Compound | IC50 (GPR3) [nM] | IC50 (GPR6) [nM]
16 | CCn1cc(-c2nc3cnc(CC(C)(C)O)cc3nc2N2CCC(Oc3ccc(F)cc3F)CC2)cn1 [Compound 706, 1-{2-[4-(2,4-difluorophenoxy)-1-piperidyl]-3-(1-ethyl-4-pyrazolyl)-1,4,6-triaza-7-naphthyl}-2-methyl-2-propanol] | 1000 to 30000 | 100 to 1000
17 | CC(C)(O)Cc1cc2nc(N3CCC(Oc4ccc(F)cc4F)CC3)c(-c3cnn(CF)c3)nc2cn1 [Compound 710, 1-{2-[4-(2,4-difluorophenoxy)-1-piperidyl]-3-[1-(fluoromethyl)-4-pyrazolyl]-1,4,6-triaza-7-naphthyl}-2-methyl-2-propanol] | 1000 to 30000 | 100 to 1000
18 | CC(C)(O)Cc1cc2nc(-c3cnn(C(F)F)c3)c(N3CCC(Oc4ccc(F)cc4F)CC3)nc2cn1 [Compound 714, 1-{2-[1-(difluoromethyl)-4-pyrazolyl]-3-[4-(2,4-difluorophenoxy)-1-piperidyl]-1,4,6-triaza-7-naphthyl}-2-methyl-2-propanol] | 1000 to 30000 | 100 to 1000
19 | CC(C)(O)Cc1cc2nc(-c3cnn(CF)c3)c(N3CCC(Oc4ccc(F)cc4F)CC3)nc2cn1 [Compound 717, 1-{3-[4-(2,4-difluorophenoxy)-1-piperidyl]-2-[1-(fluoromethyl)-4-pyrazolyl]-1,4,6-triaza-7-naphthyl}-2-methyl-2-propanol] | 1000 to 30000 | 100 to 1000
20 | CC(=O)N1CCc2nc(N3CCC(=C(C)c4ccc(F)cc4F)CC3)c(-c3cnn(C)c3)nc2C1 [Compound 718, 1-(2-{4-[1-(2,4-difluorophenyl)ethylidene]-1-piperidyl}-3-(1-methyl-4-pyrazolyl)-5,6,7,8-tetrahydro-1,4,6-triaza-6-naphthyl)-1-ethanone] | 1000 to 30000 | 1000 to 30000
21 | CC(=O)N1CCc2nc(N3CCN(C(C)c4ccc(F)cc4F)CC3)c(-c3cnn(C)c3)nc2C1 (centres unmarked) [Compound 729, 1-(2-{4-[1-(2,4-difluorophenyl)ethyl]-1-piperazinyl}-3-(1-methyl-4-pyrazolyl)-5,6,7,8-tetrahydro-1,4,6-triaza-6-naphthyl)-1-ethanone] | 1000 to 30000 | 1000 to 30000
22 | CC(=O)N1CCc2nc(N3CCN(C(c4ccccc4)C(F)(F)F)CC3)c(-c3cnn(C)c3)nc2C1 (centres unmarked) [Compound 730, 1-{3-(1-methyl-4-pyrazolyl)-2-[4-(2,2,2-trifluoro-1-phenylethyl)-1-piperazinyl]-5,6,7,8-tetrahydro-1,4,6-triaza-6-naphthyl}-1-ethanone] | 1000 to 30000 | 1000 to 30000
23 | CC(=O)N1CCc2nc(N3CCN(C(c4ccc(F)cc4F)C(F)(F)F)CC3)c(-c3cnn(C)c3)nc2C1 (centres unmarked) [Compound 731, 1-(2-{4-[1-(2,4-difluorophenyl)-2,2,2-trifluoroethyl]-1-piperazinyl}-3-(1-methyl-4-pyrazolyl)-5,6,7,8-tetrahydro-1,4,6-triaza-6-naphthyl)-1-ethanone] | ≥ 30000 | 1000 to 30000
24 | COC(=O)/C(C)=C/c1cc2nc(N3CCC(Oc4ccc(F)cc4F)CC3)c(-c3cnn(C)c3)nc2cn1 [Compound 734, methyl 3-{2-[4-(2,4-difluorophenoxy)-1-piperidyl]-3-(1-methyl-4-pyrazolyl)-1,4,6-triaza-7-naphthyl}methacrylate] | 1000 to 30000 | 1000 to 30000
25 | CC(=O)N1CCc2nc(N3CCC(Cc4ccc(F)cc4F)C3)c(-c3cnn(C)c3)nc2C1 (centres unmarked) [Compound 738, 1-(2-{3-[(2,4-difluorophenyl)methyl]-1-pyrrolidinyl}-3-(1-methyl-4-pyrazolyl)-5,6,7,8-tetrahydro-1,4,6-triaza-6-naphthyl)-1-ethanone] | 1000 to 30000 | 1000 to 30000
26 | COC(=O)/C=C/c1cc2nc(N3CCC(Oc4ccc(F)cc4F)CC3)c(-c3cnn(C)c3)nc2cn1 [Compound 745, methyl 3-{2-[4-(2,4-difluorophenoxy)-1-piperidyl]-3-(1-methyl-4-pyrazolyl)-1,4,6-triaza-7-naphthyl}acrylate] | 1000 to 30000 | 1000 to 30000
27 | CC(C)(O)CNc1cc2nc(-c3cnn(CF)c3)c(N3CCN(Cc4ccc(F)cc4F)CC3)nc2cn1 [Compound 757, 1-(3-{4-[(2,4-difluorophenyl)methyl]-1-piperazinyl}-2-[1-(fluoromethyl)-4-pyrazolyl]-1,4,6-triaza-7-naphthylamino)-2-methyl-2-propanol] | 1000 to 30000 | 100 to 1000
28 | OCCNc1cc2nc(-c3cnn(CF)c3)c(N3CCN(Cc4ccc(F)cc4F)CC3)nc2cn1 [Compound 759, 2-(3-{4-[(2,4-difluorophenyl)methyl]-1-piperazinyl}-2-[1-(fluoromethyl)-4-pyrazolyl]-1,4,6-triaza-7-naphthylamino)ethanol] | 1000 to 30000 | 100 to 1000
